# According to patent US9221786B2, “2-fluorophenyl propionic acid derivatives” (LTT BIO-PHARMA CO., LTD., priority 2011, dated 2015):
# Experiments:
# [1] = system: Male Wister rats; assay: Effect on carrageenin-induced edema; format: in vivo, rat; settings: oral, 1 hour before carrageenin, 3 and 6 hours, FIG. 2
# Description: B: Effect on Carrageenin-Induced Edema
# This test was carried out according to the method described in Br. J. Pharmacol., 151; 285-91 (2007).
# Male Wister rats (weight: 180 to 200 g) were fasted for 18 hours, and a test compound was orally administered to the rats. After 1 hour, 100 μL of 1% carrageenin (dissolved in physiological saline) was subcutaneously injected into the left footpad to induce edema.
# Before carrageenin administration, and three hours and six hours after carrageenin administration, the leg volume was measured using a plethysmometer.
# The edema inhibition rate is calculated on the basis of the following equation. Inhibition rate(%)=100−(edema volume when a compound was administrated/edema volume when a vehicle was administrated)×100.
# [2] = target: T1, COX-2 (Homo sapiens, UniProt P35354); assay: Human whole blood assay, in vitro COX-2 assay (LPS-stimulated, PGE2 by EIA); format: cell-based; settings: for selective inhibitory action on COX-2 activity: compared with loxoprofen (1), Table 12; for COX Selectivity COX-1/COX-2: ratio of IC50 COX-1 / IC50 COX-2, human whole blood
# T1 construct: incubated at 37° C. for 24 hours to induce COX-2; from tissue; host or cells: heparinised human whole blood from healthy donors, stimulated with LPS
# T1 sequence (P35354 18-604): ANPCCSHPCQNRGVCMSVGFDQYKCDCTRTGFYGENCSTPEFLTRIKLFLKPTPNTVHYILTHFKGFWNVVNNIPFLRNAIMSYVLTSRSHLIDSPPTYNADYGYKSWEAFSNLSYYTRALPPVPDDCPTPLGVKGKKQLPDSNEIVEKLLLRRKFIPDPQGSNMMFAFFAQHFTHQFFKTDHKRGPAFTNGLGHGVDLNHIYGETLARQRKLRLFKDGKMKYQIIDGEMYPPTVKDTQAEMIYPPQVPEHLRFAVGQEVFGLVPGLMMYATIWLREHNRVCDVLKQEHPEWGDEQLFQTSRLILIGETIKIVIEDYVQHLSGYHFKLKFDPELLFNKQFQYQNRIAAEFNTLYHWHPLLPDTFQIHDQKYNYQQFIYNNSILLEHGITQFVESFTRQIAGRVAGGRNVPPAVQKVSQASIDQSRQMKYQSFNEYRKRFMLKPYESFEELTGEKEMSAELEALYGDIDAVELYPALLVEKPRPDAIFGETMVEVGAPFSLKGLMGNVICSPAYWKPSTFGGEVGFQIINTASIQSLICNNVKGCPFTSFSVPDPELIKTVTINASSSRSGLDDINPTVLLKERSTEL
# Description: Human Whole Blood Assay (In Vitro)
# This test was carried out according to the method described in Inflamm. Res., 45: 68-74 (1996).
# As blood donors, persons who were healthy on the day of collecting and had not taken NSAIDs for at least a week or more were selected.
# Blood was collected in test tubes treated with heparin (Venoject II blood collection tubes, produced by TERUMO CORPORATION). To the test tubes, inflammatory stimulant lipopolysaccharide (LPS) [Sigma-Aldrich Japan Inc., #L2880 from E. coli 055:B5; diluted with phosphate buffered saline (PBS) at a final concentration of 100 μg/mL] was added. Aliquots of 500 μL were dispensed in the tubes, and 2 μL of a solution of a test compound (final concentration: 0.1 μM to 1000 μM) in a suitable solvent (DMSO or MilliQ water) was added to the tubes and incubated at 37° C. for 24 hours to induce COX-2.
# After the incubation, the sample was centrifuged at 12,000×g for 5 minutes to separate blood serum. To remove protein from blood, 100 μL of obtained blood serum was added to 400 μL of ethanol, and the mixture was centrifuged again at 12,000×g for 5 minutes. PGE2 in the supernatant was quantitatively determined using an enzyme immunoassay (EIA) kit [Cayman (Ann, Arbor, Mich., USA) #514040] according to the attached protocol.
# [3] = system: Male Wister rats; assay: Gastric ulceration after oral administration (lesion index); format: in vivo, rat; settings: rats fasted 18 hours, stomach excised after 8 hours, FIG. 1, versus loxoprofen (1)
# Description: This test was carried out according to the method described in Biochem. Pharmacol., 67; 575-85 (2004).
# Male Wister rats (weight: 180 to 200 g) were fasted for 18 hours, and a test compound was orally administered to the rats. After 8 hours, the stomach was excised and the area of ulcers found in the stomach was measured. The total area of all ulcers was represented as the lesion index.
# [4] = compared with loxoprofen; earlier work, Patent Literature 1; cited from earlier work
# [5] = earlier work of the inventors, Patent Literature 1; cited from earlier work
SMILES,COX Selectivity COX-1/COX-2 [2],anti-inflammatory effect (edema inhibition) [1],selective inhibitory action on COX-2 activity [2],gastric ulceration / gastric damage [3],anti-inflammatory effect [4],ulceration action [5]
"CC(C(=O)O)c1ccc(Cc2ccoc2)cc1F (racemic) [Compound 22a, 2-[2-fluoro-4-(furan-3-ylmethyl)-phenyl]propionic acid]",7.6,same level of anti-inflammatory effect as loxoprofen (1),,significantly reducing gastric damage,,
"CC(C(=O)O)c1ccc(CC2CCCC2=O)cc1 (stereo not drawn) [Compound 1, Loxoprofen, reference compound]",2.3,,,,,
"CC(C(=O)O)c1ccc(CC2CCCC2=O)cc1F (stereo not drawn) [Compound 2, 2-fluoroloxoprofen]",1.7,,,,same anti-inflammatory effect as loxoprofen,low ulceration action

# Second part, led by results:
COX Selectivity COX-1/COX-2 [2],SMILES,anti-inflammatory effect (edema inhibition) [1],selective inhibitory action on COX-2 activity [2],gastric ulceration / gastric damage [3],anti-inflammatory effect [4],ulceration action [5]
0.1,"CC(C(=O)O)c1ccc(OC2CCCC2)cc1F (racemic) [Compound 14, 2-[4-(cyclopentyloxy)-2-fluorophenyl]-propionic acid]",excellent anti-inflammatory effect,weaker selective inhibitory action on COX-2 activity than loxoprofen (1),gastric ulceration was significantly reduced,,
0.7,"CC(C(=O)O)c1ccc(NC2CCCC2)cc1F (stereo not drawn) [Compound 11a, 2-[4-(cyclopentylamino)-2-fluoro-phenyl]propionic acid]",excellent anti-inflammatory effect,weaker selective inhibitory action on COX-2 activity than loxoprofen (1),gastric ulceration was significantly reduced,,
5.3,"CC(C(=O)O)c1ccc(Cc2ccco2)cc1F (stereo not drawn) [Compound 21a, 2-[2-fluoro-4-(furan-2-ylmethyl)-phenyl]propionic acid]",same level of anti-inflammatory effect as loxoprofen (1),,significantly reducing gastric damage,,
